Experimental data as given in patent publication EP2601945A1 (Thomale, Jürgen, priority 2011, dated 2013).

Test system: Pt-GG adducts in DNA
Experiment: In vivo screening for cis-platin uptake inhibitors and DPH co-administration, ICA of Pt-GG adducts
Set-up: species or system mice
Details: 24 h; for inhibition of DNA platination in the three target cell types: independent of dosing (quinine 100 or 50 mg/kg, butylscopolamine 20 or 10 mg/kg) i.p. 1 h before cis-platin 10 mg/kg
Protocol: The sacrificed animals were immediately dissected. Kidneys and lungs were submerged in embedding medium (Tissue-Tek O.C.T. Compound) and frozen in liquid nitrogen. Cochleae were dissected and fixed by intralabyrinthine perfusion with Carnoy's solution (3 hours; for DNA adduct staining) or with formaldehyde (4 % in PBS; 1 hour; for OCT protein staining). Cochleae were decalcified in EDTA solution (10 % w/v in PBS) for 3 days and then placed in sucrose solutions (5 % in PBS for 12 hours and 15 % in PBS for 5 hours). After that samples were imbedded in Tissue-Tek medium, frozen and cryosections of 10 µm cut.
Frozen tissue sections of the inner ear or kidneys on ImmunoSelect slides were fixed in methanol at -20°C for at least 2 hours or overnight and then rehydrated for 10 minutes in PBS, at room temperature. To provide better antibody penetration in the tissue structures the samples underwent alkaline permeabilisation of cytoplasmic and nuclear membranes for 5 minutes at 0°C, followed by washing in PBS at room temperature for 5 minutes. The proteolytic cleavage of cytoplasmic and nuclear proteins was performed in two steps. At first, a pre-warmed pepsin solution (60 µg /ml for cell culture or 100 µg/ml for tissue sections in PBS/HCl) was applied onto the tissue sections and incubated for 10 minutes at 37°C in a humidified chamber. The incubation with pepsin was followed by washing in PBS for 10 minutes at room temperature. In a second step tissue sections were incubated with pre-warmed proteinase K solution (40 µg/ml for cell cultures or 50-100 µg /ml for tissue sections in proteinase K buffer) for 10 minutes at 37°C in a humidified chamber. Subsequently the sections were washed in 0.2 % glycine in PBS for 10 minutes at room temperature. Non-specific binding of the antibodies was inhibited by incubation with a blocking solution of 1 % casein in PBS for 30 minutes at room temperature. The samples were then incubated with a monoclonal antibody (R-C18, Liedert et al., 2006) specific for Pt-GG adducts in DNA (0.1 µg/ml in 0.1 % BSA/PBS) over night at 4°C in the humidified chamber. Subsequently, the slides were washed in 0.05 % Tween 20 in PBS for 5 minutes at room temperature and then in PBS for 5 minutes. The incubation with secondary Cy3-labeled rabbit anti-(rat Ig) antibodies, was performed (0.2 µg/ml in 0.1 % BSA/PBS) for 60 minutes at 37°C in the humidified chamber, followed by washing in 0.05 % Tween 20 in PBS for 5 minutes at room temperature and then in PBS for 5 minutes. The nuclear DNA was counterstained with DAPI (1 µg/ml in PBS) for 30 minutes at room temperature. The slides were then washed in PBS. Finally, the samples were embedded with a densification compound "[…]". The quantification of immuno- and DNA-fluorescence was performed by means of a microscope-coupled digital image analysis system ACAS 6.0 Cytometry Analysis System. Adduct levels in the nuclear DNA of individual cells were calculated by normalizing antibody-derived fluorescence signals to the corresponding DNA content of the same nucleus, and were expressed as arbitrary fluorescence units (AFUs). Data were assigned to specific cell types as determined by histochemistry.
The mice were separated into two groups for pretreatment with low or high doses of the test compounds. […] The low dose group received half the dose of the high dose group (50, 50, 30 or 10 mg/kg, respectively). […] Cochleae and kidneys were dissected for immunostaining and ICA analyses of Pt-GG adduct levels in specific cell types (Figure 8). In tissue sections from mice pretreated with quinine or butylscopolamine no inhibition of DNA platination was observed, independent of the dosing, in either of the three target cell types (renal tubulus epithelium cells (Figure 8 A), cochlear marginal cells (Figure 8B) and outer hair cells (Figure 8 C)). […]

Compound	inhibition of DNA platination in the three target cell types	reduction of adduct levels in all three target cell types (high dose (ranitidine 100 mg/kg) i.p. 1 h before cis-platin 10 mg/kg, renal tubulus epithelium, cochlear marginal and outer hair cells)
CCCC[N+]1(C)[C@@H]2C[C@@H](OC(=O)[C@H](CO)c3ccccc3)C[C@H]1[C@@H]1O[C@@H]12 (stereo partly drawn) [butylscopolamine]	no inhibition	–
C=C[C@H]1C[N@@]2CC[C@H]1C[C@H]2[C@H](O)c1ccnc2ccc(OC)cc12 [quinine]	no inhibition	–
CNC(=C[N+](=O)[O-])NCCSCc1ccc(CN(C)C)o1 [ranitidine]	–	15 - 20%
